This assay deals with ASK1 (Homo sapiens (Human), UniProt Q99683). In words: HTRF KinEASE Assay, inhibition of ASK1. The format is biochemical. Particulars: 5 nM ASK1 kinase, 1 uM STK3 peptide substrate, 100 uM ATP, TR-FRET; read-out: IC50 range. On the procedure: HTRF® KinEASE™ Assay ASK1 was purchased from Thermofisher (Catalogue # PV4011), ATP was purchased from Sigma (Catalogue # A7699), HTRF® KinEASE™ Assay System was obtained from Cisbio (Bedford, Mass.). ½ Area plate was purchased from Perkin Elmer (Catalogue # #6005560). HTRF® KinEASE™-STK is a generic method for measuring serine/threonine kinase activities using a time-resolved fluorescence resonance energy transfer (TR-FRET) immunoassay. […] The test compound, 1 uM STK3 peptide substrate, and 5 nM of ASK1 kinase are incubated with kinase reaction buffer containing 50 mM HEPES pH 7.5, 0.01% BRIJ-35, 10 mM MgCl2, and 1 mM EGTA for 30 minutes. 100 uM ATP is added to start kinase reaction and incubated for 3 hours. The STK3-antibody labeled with Eu^3+-Cryptate and 125 nM streptavidin-XL665 are mixed in a single addition with stop reagents provided by the Cisbio kit used to stop the kinase reaction. Fluorescence is detected using an Envision Multilabeled 2014 reader from PerkinElmer. The Fluorescence is measured at 615 nm (Cryptate) and 665 nm (XL665) and a ratio of 665 nm/615 nm is calculated for each well. The resulting TR-FRET is proportional to the phosphorylation level. […] IC50 was determined by XLfit 5.3. By using above method, the inhibition of ASK1 was evaluated for the compounds of Formula (I).

This note sets out measurements from patent publication US10683289B2, “Apoptosis signal-regulating kinase 1 inhibitors and methods of use thereof” (ENANTA PHARMACEUTICALS, INC., priority 2018, dated 2020).

Chain of ASK1 (Q99683 whole entry): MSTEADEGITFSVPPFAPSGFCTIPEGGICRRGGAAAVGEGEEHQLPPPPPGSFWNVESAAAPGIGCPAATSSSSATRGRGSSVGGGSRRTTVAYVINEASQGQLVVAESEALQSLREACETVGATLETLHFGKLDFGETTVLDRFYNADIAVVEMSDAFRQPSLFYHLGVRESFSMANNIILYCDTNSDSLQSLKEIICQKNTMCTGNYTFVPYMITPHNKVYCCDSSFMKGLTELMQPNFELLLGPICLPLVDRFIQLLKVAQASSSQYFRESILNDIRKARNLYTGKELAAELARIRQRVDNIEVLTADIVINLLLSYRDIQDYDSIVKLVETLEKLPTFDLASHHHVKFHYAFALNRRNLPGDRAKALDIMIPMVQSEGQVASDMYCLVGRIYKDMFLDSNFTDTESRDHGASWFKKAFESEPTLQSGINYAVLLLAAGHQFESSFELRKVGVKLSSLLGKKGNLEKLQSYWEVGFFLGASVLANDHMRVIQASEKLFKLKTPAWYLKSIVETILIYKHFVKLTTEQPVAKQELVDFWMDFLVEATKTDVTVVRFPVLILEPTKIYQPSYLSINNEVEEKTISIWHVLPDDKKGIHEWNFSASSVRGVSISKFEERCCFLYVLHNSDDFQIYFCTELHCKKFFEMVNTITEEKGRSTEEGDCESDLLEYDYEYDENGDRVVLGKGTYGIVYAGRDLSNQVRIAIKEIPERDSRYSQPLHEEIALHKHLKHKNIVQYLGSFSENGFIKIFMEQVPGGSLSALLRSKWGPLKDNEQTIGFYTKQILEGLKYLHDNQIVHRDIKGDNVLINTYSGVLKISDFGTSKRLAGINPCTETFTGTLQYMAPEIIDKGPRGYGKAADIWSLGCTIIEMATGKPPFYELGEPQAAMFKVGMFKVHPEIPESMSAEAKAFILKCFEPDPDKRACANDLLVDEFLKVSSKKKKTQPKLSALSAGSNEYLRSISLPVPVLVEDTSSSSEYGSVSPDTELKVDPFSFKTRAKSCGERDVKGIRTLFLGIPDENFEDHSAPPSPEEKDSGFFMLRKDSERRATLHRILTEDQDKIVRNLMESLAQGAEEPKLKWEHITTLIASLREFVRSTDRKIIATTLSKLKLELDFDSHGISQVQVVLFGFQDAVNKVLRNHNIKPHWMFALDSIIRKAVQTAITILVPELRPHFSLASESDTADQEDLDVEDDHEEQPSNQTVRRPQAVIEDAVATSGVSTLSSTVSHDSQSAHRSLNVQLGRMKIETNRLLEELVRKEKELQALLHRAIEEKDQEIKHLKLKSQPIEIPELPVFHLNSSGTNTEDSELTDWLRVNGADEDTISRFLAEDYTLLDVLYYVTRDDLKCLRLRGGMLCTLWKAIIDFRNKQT

As a reminder, the IC50 is the concentration at which inhibition is half-maximal. For the compound `CC(C)n1nnnc1-c1cccc(NC(=O)c2cc3c(cc2F)CN(C(C)(C)C)S3(=O)=O)n1` [Example 1, 2-(tert-butyl)-5-fluoro-N-(6-(1-isopropyl-1H-tetrazol-5-yl)pyridin-2-yl)-2,3-dihydrobenzo[d]isothiazole-6-carboxamide 1,1-dioxide], the IC50 was in the range of 100 to 1000 nM. In the case of `C[C@H](CO)n1nnnc1-c1cccc(NC(=O)c2cc3c(cc2F)CN(C(C)(C)C)S3(=O)=O)n1` [Example 2, (R)-2-(tert-butyl)-5-fluoro-N-(6-(1-(1-hydroxypropan-2-yl)-1H-tetrazol-5-yl)pyridin-2-yl)-2,3-dihydrobenzo[d]isothiazole-6-carboxamide 1,1-dioxide], the IC50 lay within 10 to 100 nM. On to `CC(C)n1nnnc1-c1cccc(NC(=O)c2cc3c(cc2F)CCN(C(C)(C)C)S3(=O)=O)n1` [Example 4, 2-(tert-butyl)-6-fluoro-N-(6-(1-isopropyl-1H-tetrazol-5-yl)pyridin-2-yl)-3,4-dihydro-2H-benzo[e][1,2]thiazine-7-carboxamide 1,1-dioxide], for which the IC50 lay within 10 to 100 nM.

With `COc1cc2c(cc1C(=O)Nc1cccc(-c3nnnn3C(C)C)n1)S(=O)(=O)N(C(C)(C)C)C2` [Example 6, 2-(tert-butyl)-N-(6-(1-isopropyl-1H-tetrazol-5-yl)pyridin-2-yl)-5-methoxy-2,3-dihydrobenzo[d]isothiazole-6-carboxamide 1,1-dioxide], the IC50 was > 1000 nM.

Regarding `CC(C)N1Cc2cc(F)c(C(=O)Nc3cccc(-c4nncn4C(C)C)n3)cc2S1(=O)=O` [Example 7, 5-fluoro-2-isopropyl-N-(6-(4-isopropyl-4H-1,2,4-triazol-3-yl)pyridin-2-yl)-2,3-dihydrobenzo[d]isothiazole-6-carboxamide 1,1-dioxide], the IC50 is 10 to 100 nM. For `COc1cc2c(cc1C(=O)Nc1cccc(-c3nncn3C(C)C)n1)S(=O)(=O)N(C(C)C)C2` [Example 8, 2-isopropyl-N-(6-(4-isopropyl-4H-1,2,4-triazol-3-yl)pyridin-2-yl)-5-methoxy-2,3-dihydrobenzo[d]isothiazole-6-carboxamide 1,1-dioxide] the value was < 1.5 nM. `CC(C)N1Cc2cc(F)c(C(=O)Nc3cccc(-c4nnnn4[C@H](C)CO)n3)cc2S1(=O)=O` [Example 9, (R)-5-fluoro-N-(6-(1-(1-hydroxypropan-2-yl)-1H-tetrazol-5-yl)pyridin-2-yl)-2-isopropyl-2,3-dihydrobenzo[d]isothiazole-6-carboxamide 1,1-dioxide]: the IC50 was 10 to 100 nM. With `COc1cc2c(cc1C(=O)Nc1cccc(-c3nnnn3[C@H](C)CO)n1)S(=O)(=O)N(C(C)C)C2` [Example 10, (R)—N-(6-(1-(1-hydroxypropan-2-yl)-1H-tetrazol-5-yl)pyridin-2-yl)-2-isopropyl-5-methoxy-2,3-dihydrobenzo[d]isothiazole-6-carboxamide 1,1-dioxide], the IC50 is < 1.5 nM. For the compound `CC(C)N1Cc2cc(OCC(F)(F)F)c(C(=O)Nc3cccc(-c4nnnn4[C@H](C)CO)n3)cc2S1(=O)=O` [Example 12, (R)—N-(6-(1-(1-hydroxypropan-2-yl)-1H-tetrazol-5-yl)pyridin-2-yl)-2-isopropyl-5-(2,2,2-trifluoroethoxy)-2,3-dihydrobenzo[d]isothiazole-6-carboxamide 1,1-dioxide], the IC50 fell in the range of 100 to 1000 nM.

In the case of `CC(C)Oc1cc2c(cc1C(=O)Nc1cccc(-c3nnnn3[C@H](C)CO)n1)S(=O)(=O)N(C(C)C)C2` [Example 13, (R)—N-(6-(1-(1-hydroxypropan-2-yl)-1H-tetrazol-5-yl)pyridin-2-yl)-5-isopropoxy-2-isopropyl-2,3-dihydrobenzo[d]isothiazole-6-carboxamide 1,1-dioxide], the IC50 lay within 10 to 100 nM.

In the case of `CC(C)N1Cc2cc(N(C)C)c(C(=O)Nc3cccc(-c4nnnn4[C@H](C)CO)n3)cc2S1(=O)=O` [Example 14, (R)-5-(dimethylamino)-N-(6-(1-(1-hydroxypropan-2-yl)-1H-tetrazol-5-yl)pyridin-2-yl)-2-isopropyl-2,3-dihydrobenzo[d]isothiazole-6-carboxamide 1,1-dioxide], the IC50 is 10 to 100 nM. For the compound `CC(C)n1cnnc1-c1cccc(NC(=O)c2cc3c(cc2F)CN(C)S3(=O)=O)n1` [Example 15, 5-fluoro-N-(6-(4-isopropyl-4H-1,2,4-triazol-3-yl)pyridin-2-yl)-2-methyl-2,3-dihydrobenzo[d]isothiazole-6-carboxamide 1,1-dioxide], the IC50 lay within 10 to 100 nM. Under `COc1cc2c(cc1C(=O)Nc1cccc(-c3nncn3C(C)C)n1)S(=O)(=O)N(C)C2` [Example 16, N-(6-(4-isopropyl-4H-1,2,4-triazol-3-yl)pyridin-2-yl)-5-methoxy-2-methyl-2,3-dihydrobenzo[d]isothiazole-6-carboxamide 1,1-dioxide] stands < 1.5 nM; under `C[C@H](CO)n1nnnc1-c1cccc(NC(=O)c2cc3c(cc2F)CN(C)S3(=O)=O)n1` [Example 17, (R)-5-fluoro-N-(6-(1-(1-hydroxypropan-2-yl)-1H-tetrazol-5-yl)pyridin-2-yl)-2-methyl-2,3-dihydrobenzo[d]isothiazole-6-carboxamide 1,1-dioxide], 10 to 100 nM; under `COc1cc2c(cc1C(=O)Nc1cccc(-c3nnnn3[C@H](C)CO)n1)S(=O)(=O)N(C)C2` [Example 18, (R)—N-(6-(1-(1-hydroxypropan-2-yl)-1H-tetrazol-5-yl)pyridin-2-yl)-5-methoxy-2-methyl-2,3-dihydrobenzo[d]isothiazole-6-carboxamide 1,1-dioxide], < 1.5 nM.

In the case of `COCCN1Cc2cc(F)c(C(=O)Nc3cccc(-c4nncn4C(C)C)n3)cc2S1(=O)=O` [Example 19, 5-fluoro-N-(6-(4-isopropyl-4H-1,2,4-triazol-3-yl)pyridin-2-yl)-2-(2-methoxyethyl)-2,3-dihydrobenzo[d]isothiazole-6-carboxamide 1,1-dioxide], the half-inhibitory concentration (IC50) lay in the range of 10 to 100 nM.

As for `COCCN1Cc2cc(OC)c(C(=O)Nc3cccc(-c4nncn4C(C)C)n3)cc2S1(=O)=O` [Example 20, N-(6-(4-isopropyl-4H-1,2,4-triazol-3-yl)pyridin-2-yl)-5-methoxy-2-(2-methoxyethyl)-2,3-dihydrobenzo[d]isothiazole-6-carboxamide 1,1-dioxide], the IC50 is 10 to 100 nM. Consider `COCCN1Cc2cc(F)c(C(=O)Nc3cccc(-c4nnnn4[C@H](C)CO)n3)cc2S1(=O)=O` [Example 21, (R)-5-fluoro-N-(6-(1-(1-hydroxypropan-2-yl)-1H-tetrazol-5-yl)pyridin-2-yl)-2-(2-methoxyethyl)-2,3-dihydrobenzo[d]isothiazole-6-carboxamide 1,1-dioxide], for which the IC50 was < 1.5 nM. For `COCCN1Cc2cc(OC)c(C(=O)Nc3cccc(-c4nnnn4[C@H](C)CO)n3)cc2S1(=O)=O` [Example 22, (R)—N-(6-(1-(1-hydroxypropan-2-yl)-1H-tetrazol-5-yl)pyridin-2-yl)-5-methoxy-2-(2-methoxyethyl)-2,3-dihydrobenzo[d]isothiazole-6-carboxamide 1,1-dioxide] the value was < 1.5 nM.
